Reference: patent US7718613B2, “Armed peptides” (priority 2001, dated 2010)
The star is where a group is joined. Myristoyl = CCCCCCCCCCCCCC(=O)*

What was measured:
[1] = Cytolytic activity of pH-responsive peptides on calcein liposomes at different pH; conditions: liposomes 4 μM lipid; 14 nM peptide 2, 20 nM peptide 7, 45 nM peptide 9; FIG. 4
Experimental: Liposomes encapsulating calcein dye were prepared by an extrusion method (Biochim. Biophys. Acta, 812 (1985) 55). Phophatidylcholine (50 mg) and cholesterol (13.08 mg) which had been dissolved in 4 ml of 50% v/v chloroform methanol solution were evaporated to form a lipid film in a round bottom flask. If it is essential to follow the fate of liposomes a lipohilic-dye such as DiI (50 μg) could be incorporated into the lipid film prior to hydration. The film was then hydrated with 4 ml of 120 mM calcein solution prepared in 10 mM sodium phosphate 20 mM Sodium chloride buffer pH 7.4. Liposomes were formed by 10 extrusion cycles through 0.2 micron or 0.1 um polycarbonate filters using the Liposofast 100 (Avestin) extruder device. The non encapsulated dye was removed by gel filtration on a PD-10 column using iso-osmotic buffer. The total lipid concentration of the liposomes was measured by the Stewart assay and adjusted to 3 mg per ml.
The cytolytic activity of pH-responsive peptides was followed by adding 2 or 3 μl of liposomes to a 2 ml assay volume and continually recording fluorescence. Buffers were made of 10 mM Na phosphate, 140 mM NaCl, 1 mM EDTA, 5 mM HEPES at several different pH values. […] In the experiments 2 ml of 10 mM Na phosphate, 140 mM NaCl, 1 mM EDTA, 5 mM HEPES buffer (at pH values indicated on the figure) containing liposomes (4 μM lipid) and (A) 14 nM peptide 2, (B) 20 nM peptide 7 (C) 45 nM peptide 9. In all cases peptides were added indicated by sharp dip in fluorescence were used. The pH values are as indicated for each trace. […] In general, it is well documented that many proteins including receptors, enzymes and antibodies has pH optimum usually closer to physiological value. On either side of the pH optimum the binding activity is reduced. However in general as activity profile is typically bell shape most proteins would tolerate at least a pH unit shift from optimum. Obviously the closer the results are to pH 7.4 the higher chances their are for efficient binding with target proteins or receptors.

[2] = Liposome-peptide integral complex: pH-triggered calcein release and stability
Excerpt: A fatty acid incorporated on the N-terminal of peptide anchors the sequence with liposomes to form integral complex which can then be used as single stable reagent that can be triggered to release the contents-of the liposomoes when the pH is ideal (i.e physiological 7.4) or acidic (e.g 6.2). In the first instance we prepared the liposome-peptide complex at a predetermined ratio of lipid-to peptide (30:1) in pH 8 buffer using peptide 10. […] The complex between liposomes and peptide was formed by adding peptide to […] of 10 mM NaP containing 140 mM NaCl, 1 mM EDTA, 5 mM Hepes pH 8 buffer, containing 100 μl of calcein encapsulating liposomes. The mixture was incubated for 20 mins to form the complex prior to use. In order to ascertain that the lysis is occurring due to the formation of complex and not as the action of the peptide per se it was essential to purify the liposome-peptide complex. The peptide to lipid ratio in this complex is 1:30. The complex was applied to a Sepharose CL-6B column. Fractions corresponding to liposomes were collected as clearly visible to the eye. Aliquots of these fractions were then tested for lytic activity at acidic and physiological pH values. The key aim was to establish that the peptide is liposome associated and would thus be eluted with liposome fraction in the void volume. We used 100 μl complex (a column purified fraction) and followed the release of Calcein at two different pH values.
FIG. 8A. […] Upper curve pH 5.8. Lower curve pH 7.4.
2 ml buffer (10 mM Na phosphate, 140 mM NaCl, 1 mM EDTA, 5 mM HEPES)+50 μl purified complex. Lipsomes used were 50 nm extruded. Curves top to bottom are pH 6.2, 6.4, 6.7, 7.0, 7.4
Complex 20 μl liposomes+60 μl pH 8 buffer+20 μl peptide (0.1 mg/ml) prepared and used within 2 minutes. 10 μl was added to each of the cuvettes containing 2 ml buffers. Top curve pH 6.2 (triton was added towards the end indicated by sharp dip in fluorescence to check full lysis), the lower curve is at pH 7.4. Samples measured simultaneously.
5 μL of complex in 2 ml of buffer tested 20 minutes after preparation. Upper curve pH 6.2, Lower curve pH 7.4.
5 μL of complex in 2 ml of buffer tested 5 hrs after preparation. Upper curve pH 6.2 and lower curve pH 7.4.
5 μL of complex in 2 ml of buffer tested 24 hrs after preparation curve pH 6.2, Lower curve pH 7.4.

KHT tumour = test: Ex vivo release of calcein in tumour slices after i.v. peptide liposome complex; parameters: species or system C3H mice; conditions: 200 μl complex i.v., tumours excised 3 hrs post inoculum, buffer pH 8 changed to pH 5.8; FIG. 11
Experimental: Liposomes encapsulating Calcein (120 mM) and with label DiI (the dye to lipid ratio was around 100 μg dye: 100 mg PC) were used. C3H syngenic mice 8-10 weeks old weighing 20-25 g were used. Subcutaneous tumour was implanted using KHT cells (5×10^6 cells/animal) on the dorsal side after shaving the mice. Typically 200 μl of peptide liposome complex (100 μl of dual dye liposomes+100 μl of peptide 0.1 mg/ml) were administered intravenously per mice and tumours excised 3 hrs post inoculum. The tumour was removed aseptically and kept in PBS pH 8.0 buffer and thin sections (160 μm-200 μm) were cut on the slicing machine, and examined under a fluorescence microscope. The pH of the buffer was modulated by adding 400 μl of NaP buffer pH 5.8 while simultaneously removing 400 μl of pH 8 buffer. Changes in fluorescence intensity were recorded. The state of liposome peptide complex is then determined, whether intact or lysed by measuring fluorescence in tissue slices before-and after incubation in acidic buffer. The increase in fluorescence in the acidic buffer indicates the quantity of liposomes that were still intact and able to respond at the time of sacrifice.

Myr-WEAALAEALAEALAEHLARALAEALEALAA-Amide (Myristoyl-WEAALAEALAEALAEHLARALAEALEALAA-NH2; SMILES CCCCCCCCCCCCCC(=O)N[C@@H](Cc1c[nH]c2ccccc12)C(=O)N[C@@H](CCC(=O)O)C(=O)N[C@@H](C)C(=O)N[C@@H](C)C(=O)N[C@@H](CC(C)C)C(=O)N[C@@H](C)C(=O)N[C@@H](CCC(=O)O)C(=O)N[C@@H](C)C(=O)N[C@@H](CC(C)C)C(=O)N[C@@H](C)C(=O)N[C@@H](CCC(=O)O)C(=O)N[C@@H](C)C(=O)N[C@@H](CC(C)C)C(=O)N[C@@H](C)C(=O)N[C@@H](CCC(=O)O)C(=O)N[C@@H](Cc1c[nH]cn1)C(=O)N[C@@H](CC(C)C)C(=O)N[C@@H](C)C(=O)N[C@@H](CCCNC(=N)N)C(=O)N[C@@H](C)C(=O)N[C@@H](CC(C)C)C(=O)N[C@@H](C)C(=O)N[C@@H](CCC(=O)O)C(=O)N[C@@H](C)C(=O)N[C@@H](CC(C)C)C(=O)N[C@@H](CCC(=O)O)C(=O)N[C@@H](C)C(=O)N[C@@H](CC(C)C)C(=O)N[C@@H](C)C(=O)N[C@@H](C)C(N)=O) [peptide 9]
pH of triggering (pH profile of calcein release from liposomes) [1]: ~7 pH | stability of the complex ([2]; calcein/DiI liposomes, tested 20 minutes, 5 hrs and 24 hrs after preparation, pH 6.2 vs 7.4, FIGS. 8D, E, F): retention of the pH triggering of properties | triggering properties of complex after purification ([2]; peptide to lipid ratio 1:300, pH 6.2 to 7.4, FIG. 8B): triggering properties are retained | release of calcein in tumour slices on acidification (KHT tumour): able to trigger release of calcein
